# From US11369595B2, “Use of tryptophan metabolites for treating muscle atrophy” (METABRAIN RESEARCH, priority 2016, dated 2022)
# Columns and labels:
# C2C12 muscle cells = test: Measurement of protein synthesis in C2C12 cells (radio-labeled leucine incorporation); format: cell-based; settings: for effect on protein synthesis in C2C12 muscle cells: 150 min incubation, radio-labeled leucine, versus DMSO control
# Description: The cells are counted and seeded at the density of 20 000 cells per well in a 24-well plate in DMEM medium containing glucose in a proportion of 4.5 g/l and supplemented with fetal calf serum (10%) and with antibiotics (penicillin and streptomycin). Forty-eight hours layer, the myoblasts are induced to differentiate by partial serum deprivation (2% instead of 10%) for 5 days. The cells are then placed in medium without glucose or leucine (Krebs medium) for 1 h at 37° C., then incubated for 150 min in the presence of the products to be tested (DMSO (control), kynurenic acid or anthranilic acid or quinolinic acid or picolinic acid or 3OH-kynurenine) or reference (IGF-1, 100 ng/ml) in serum-free DMEM medium containing 2.5 μCi/ml radio-labeled leucine. At the end of the incubation, the supernatants are removed and the cells are lysed in 0.1N NaOH solution for 30 min. The radioactivity is measured in the cell fraction and the total amount of proteins is determined by assaying according to the Lowry method. Each condition is evaluated at least with n=6; IGF-1, 100 ng/ml is our control for stimulating protein synthesis. The results are expressed in cpm/μg of proteins after 150 min of incubation or as a percentage relative to the control condition. The results are expressed as % of the control and a statistical test is carried out: Dunnett's or Dun test (*p<0.05, **p<0.01, ***p<0.001 versus control). The results obtained with kynurenic acid, anthranilic acid, quinolinic acid, picolinic acid and 3OH-kynurenin are represented in FIGS. 1 to 5.
# loss of muscle mass = settings: mice on a protein-poor diet, supplementation; cited from earlier work
# C2C12 muscle fibers = test: Evaluation of the diameter of the C2C12 muscle fibers; format: cell-based; settings: incubation for 3 days, 100 μM
# Description: The C2C12 myoblast cells (ATCC CRL-1772) are seeded in 8-well plates treated with glycerol, at the density of 10 000 cells per well and cultured in DMEM medium containing glucose in a proportion of 4.5 g/l and supplemented with fetal calf serum (10%) and with antibiotics (penicillin and streptomycin). Forty-eight hours layer, the myoblasts are induced to differentiate by partial serum deprivation (2% instead of 10%) for 3 days. The cells are then placed in a serum-free, glucose-depleted medium (DMEM containing 1 g/l of glucose) in the presence of the molecules to be tested (DMSO (control) or kynurenic acid) or the references (IGF-1 at the concentration of 10 ng/ml or dexamethasone at 10 μM) for 3 days. At the end of the culture, the cells are rinsed and fixed using a 2.5% glutaraldehyde/0.1% triton solution for 1 h at ambient temperature. The cell layer is covered with DAPI (fluorescent labeling of the cell nucleus). After storage in the dark for 16 h in the cold, the slides are observed under a fluorescence microscope (Carl Zeiss, AxioVert 200) and the images are analyzed using the Axiovision 4.1 software for measuring the diameter of the fibers. A representative image of each condition is shown. A statistical test is carried out: Dunnett's or Dun test (*p<0.05, **p<0.01, ***p<0.001 versus control). The results obtained with kynurenic acid are represented in FIG. 7.
# [1] = tested on: muscle atrophy induced by immobilization; test: Muscle atrophy induced by immobilization in mice; format: in vivo; settings: CD1 mice, 7 days immobilization, 3 mg/kg per day in the drinking water, compared with control group
# Description: Limb immobilization is known to induce skeletal muscle atrophy involving mechanisms linked to protein degradation, to a change in muscle fiber types, to oxidative stress or inflammatory mechanisms. Briefly, male 8-9-week-old CD1 mice were used in this study. The foot of the left hindlimb was immobilized for 7 days according to the procedure described by Caron et al. (2009), in the dorso-tibial flexion position, by means of a surgical staple. The other foot (right hindlimb) is used as a control. For the duration of the immobilization, one group of animals (n=12) received a treatment with kynurenic acid (3 mg/kg per day) in the drinking water. Another group of animals served as a control (n=16 animals). At the end of the 7 days of study, the animals were sacrificed in order to remove the Tibialis anterial muscle from the two hindlimbs. For each animal, the difference between the weight of the muscle of the immobilized limb and the free limb is calculated, then related back to the bodyweight. The results are expressed as weight loss of the immobilized limb relative to the control limb (in mg per g of body weight), and a statistical test is carried out: Student's test (*p<0.05, **p<0.01, ***p<0.001 versus control group).
# [2] = tested on: myostatin gene expression in C2C12 muscle cells; test: Measurement of myostatin gene expression in C2C12 cells (RT-qPCR); format: cell-based; settings: 6 hours of incubation, standardized to beta-actin
# Description: The C2C12 myoblast cells (ATCC CRL-1772) are seeded in 24-well plates at the density of 30 000 cells per well and cultured in a DMEM medium containing glucose in a proportion of 4.5 g/l and supplemented with fetal calf serum (10%) and with antibiotics (penicillin and streptomycin). Forty-eight hours later, the myoblasts are induced to differentiate by partial serum deprivation (2% instead of 10%) for 5 days. The cells are then placed in a serum-free, glucose-depleted medium (DMEM containing 1 g/l of glucose) in the presence of the molecules to be tested (DMSO (control) or IGF-1 (100 ng/ml) or kynurenic acid) or of the references (IGF-1 at the concentration of 100 ng/ml) for 6 h. […] The samples analyzed all contain […] of cDNA, a qPCR buffer including the enzyme, the oligonucleotide mixture and the intercalating agent (sybergreen), and the pair of primers specific for the gene studied, strategically chosen between two exon sequences and at the final concentration of 200 nM. […] A fluorescence threshold is established by the program of the machine. […] It is this value which forms the basis for the calculations to relatively quantify the DNA. […] The primers used are given in table 1 below: At the end of the incubation, the expression of the myostatin gene is measured by RT-qPCR and standardized using the beta-actin housekeeping gene. […]
compound,measurement,setting,value
"Nc1c(O)cccc1C(=O)C[C@H](N)C(=O)O [3OH-kynurenine, reference compound]",effect on protein synthesis in C2C12 muscle cells,C2C12 muscle cells,no effect on protein synthesis
Nc1ccccc1C(=O)C[C@H](N)C(=O)O [L-kynurenine],effect on loss of muscle mass,loss of muscle mass,varies according to the dose tested (beneficial or negative)
"N[C@@H](Cc1c[nH]c2ccccc12)C(=O)O [TRP, Tryptophan]",effect on loss of muscle mass,loss of muscle mass,capable of reducing the loss of muscle mass
Nc1ccccc1C(=O)O [anthranilic acid],effect on protein synthesis in C2C12 muscle cells,C2C12 muscle cells,significantly induce protein synthesis
O=C(O)c1cc(=O)c2ccccc2[nH]1 [kynurenic acid],size (diameter) of the C2C12 muscle fibers,C2C12 muscle fibers,increase in the size of the C2C12 muscle fibers
same,loss of muscle (Tibialis anterior) mass induced by immobilization,[1],significantly decreases the loss of muscle
same,myostatin gene expression,[2],significant dose-dependent inhibition
same,effect on protein synthesis in C2C12 muscle cells,C2C12 muscle cells,significantly induce protein synthesis
same,dose dependence of stimulation of protein synthesis,C2C12 muscle cells; after 150 min of incubation,dose-dependent stimulation of protein synthesis
O=C(O)c1ccccn1 [picolinic acid],effect on protein synthesis in C2C12 muscle cells,C2C12 muscle cells,significantly induce protein synthesis
O=C(O)c1cccnc1C(=O)O [quinolinic acid],effect on protein synthesis in C2C12 muscle cells,C2C12 muscle cells,significantly induce protein synthesis
